Format in all cases: cell-based, rat
Assay [1] deals with MHC class I antigen expression. Briefly: Flow cytometry of IFN-increased class I antigen expression in FRTL-5 cells. As to conditions: 100 U/ml γ-interferon, 6H medium (TSH), 40 hours. How it is done: (§1) In this experiment 10^6 cells were incubated with MHC class II or MHC class I-specific antibodies as described (Montani, V., et al., ibid (1998b); Saji, M., et al., ibid (1992a); Balducci-Silano, P. L., et al., Endocrinology 139:2309-2313 (1998)). After 30 min on ice, cells were washed with phosphate buffered saline at pH 7.4 and incubated for 30 min with fluorescein-isothiocyanate (FITC)-conjugated antibodies then analyzed by flow cytometry on a FACScan Cytometer using CellQuest software (Becton Dickinson).
(§2) The concentration needed to achieve suppression of the interferon induced class I or class II surface expression was determined by testing different concentrations of the compounds (Table 18). Like all other assays, the order of effectiveness was compound 10>11>7 or 8>2>MMI>3.
For orientation: Flow cytometry measures light scatter and fluorescence of single cells or particles in a stream.

In assay [2] the test system is protein/DNA complex with Fragment 127 of the MHC class I 5′-flanking region. Briefly: Gel shift (EMSA) with downstream 127 class I probe, extracts from treated FRTL-5 cells. As to conditions: 5H cells treated 48 hours. On the procedure:
Cells were grown in 6H medium with 5 % calf serum for 6-7 days to 70-80% confluence, then shifted to 5H medium with 5 % calf serum for 5 days. TSH (1×10^−10 M), gamma-interferon (100 U/ml), MMI (5 mM), and different concentrations of MMI derivatives or tautomeric cyclic thiones (0.0001 to 10 mM) were added as appropriate for […]. Cells were then harvested and extracts were made by a modification of a method of Dignam, J., et al. Methods in Enzymology, 101:582-598 (1983). In brief, cells were harvested by scraping after being washed twice with cold phosphate-buffer saline (PBS). Subsequently they were pelleted, washed in cold PBS and then pelleted again. The pellet was resuspended in Dignam buffer C (20 mM Hepes buffer at pH 7.9, 1.5 mM MgCl2, 0.42 M NaCl, 25% glycerol, 0.5 mM dithiotreitol (DTT), 0.5 mM phenylmethylsulfonylfluoride (PMSF), 1 […] pepstatin). The final NaCl concentration was adjusted on the basis of cell pellet volume to 0.42 M and cells were lysed by repeated cycles of freezing and thawing. Extracts were then centrifuged at 10,000×g at 4° C. for 20 min. The supernatant was recovered, aliquoted and stored at −70° C.
Binding reactions were performed in a volume of 20 μl for 30 min at room temperature. The typical reaction mixture contained 1.5 fmol of ^32P DNA, 3 μg of cell extracts, 1 to 3 μg of poly (dI-dC) in 10 mM Tris-Cl (pH 7.9), 1 mM MgCl2, 1 mM DTT, 1 mM ethylenediamine tetra acetic acid (EDTA), and 5 % glycerol. After incubation, reaction mixtures were subjected to electrophoresis in 4% polyacrylamide gels for 90-120 min at 160 V in 0.5× TBE (Sambrook, J., et al., Molecular Cloning: A Laboratory Manual, 2nd ed. Cold Spring Harbor Press, NY, 2: 11.23-11.44 (1989)), then dried and autoradiographed. Probes were labeled with [α32P] deoxy CTP by Klenow enzyme (In Vitro labeling kit, Amersham) following the manufacturer's instructions, or by [γ^32P] ATP using T4 polynucleotide kinase. Labeled probes were then purified either through G-50 columns (5 prime→3 Prime) or on an 8% polyacrylamide gel.
FIG. 3 denotes the sequence of the downstream region of the PD1 promoter. The location of enhancer A (−180 to −170 bp), the interferon response element (IRE; −161 to −150 bp), and the cAMP response element (CRE; −107 to −100 bp) are noted. The downstream silencer is between −127 and −80 bp (Saji, et al., ibid, 20096-20107 (1997)). Using a 127 bp probe, −125 to +1 bp, MMI (lane 4) or TSH (lane 10) induce the formation of a rapidly migrating protein/DNA complex (FIG. 4) which is clearly evident 24 to 48 h after SH cells are treated. MMI derivatives can also increase this complex, as illustrated for compound 8 in FIG. 4 (lanes 1 to 3). The time most suitable for measurement is 24 to 48 h (FIG. 4) the complex can be quantitated by comparison to control (lane 7 or 9) using densitometry or the phosphoimager as noted earlier. In this case, the increase over control (set at 1) is measured in arbitrary units relative to the maximal increase induced by 5 mM MMI which is arbitrarily set at 10. The results using all 11 compounds in Table 1, each added to cells at different concentrations 48 hours before extracts were prepared, are summarized in Table 3.
For orientation: Mobility shift assays separate free from complexed probe on a gel.

The test system of assay [3] is MHC class II antigen expression. Briefly: Flow cytometry of IFN-increased class II antigen expression in FRTL-5 cells. The note with it: 100 U/ml γ-interferon, 6H medium (TSH), 40 hours. On the procedure:
[…] 13 and 14. Cells were stained with a fluorescein isothiocyanate conjugated class II-specific monoclonal antibody to RT1.B (clone OX-6, Sera Labs, UK) for 60 min at 4° C., washed twice with Dulbecco's phosphate buffered saline, and subjected to laser flow cytometry.
as §1, §2

Another assay deals with MHC class I RNA. Briefly: Northern analysis of MHC class I RNA levels in FRTL-5 cells. As to conditions: for inhibition at 1000 µM / inhibition at 5000 µM: Rattus norvegicus.
Assay [4] relates to Y box protein (TSEP-1) RNA. The assay is described as follows: Northern analysis of Y box protein (TSEP-1) RNA levels in FRTL-5 cells. As to conditions: 40 hours. From the text: Whereas γ-IFN decreases Y box protein RNA levels in FRTL-5 cells, MMI can reverse this action (FIG. 16). […] The rat TSEP-1 probe was the clone 31 insert, residues 5 to 1395 of the rat TSEP-1 nucleotide sequence reported (Ohmori, M., et al., ibid (1996)); rat β-actin was kindly provided by Dr. B. Paterson (NCI, Bethesda, Md.). Radiolabeling of all probes, hybridization (0.5-1.0×10^6cpm/ml), and washing were as described (Isozaki, O., et al., ibid (1989); Saji, M., et al., ibid (1992); Ohmori, M., et al., ibid (1996)).
The ability of the compounds to reverse the γ-IFN-induced decrease in TSEP-1 RNA levels is once again 10>11>7 or 8>2>MMI>3. This mimics data in all other assays.

Where [5] appears, read: 100 μM, 100 U/ml γ-interferon, 6H medium (TSH), 40 hours.
Setting [6] is: 100 μM, basal, 5H medium, 40 hours.
The mark [7] stands for this setting: FRTL-5, 1 mM, 100 U/ml γ-interferon, 6H medium (TSH), 40 hours, read-out: % inhibition of class I RNA expression (γ-interferon-treated).
[8] abbreviates: FRTL-5, 1 mM, basal, 5H medium, 40 hours, read-out: % inhibition of class I RNA expression (basal).
Where [9] appears, read: FRTL-5, 5 mM, 100 U/ml γ-interferon, 6H medium (TSH), 40 hours, read-out: % inhibition of class I RNA expression (γ-interferon-treated).

Read-outs that look alike come from different tables or passages of the source.

Consider `Sc1ncc[nH]1` [Compound 3, 2-Mercaptoimidazole], for which, in assay [1], the “Concentration to inhibit IFN-increased antigen expression, Class I” value was “No Inhibition”. In addition, the “% increase over control relative to the maximal (5 mM) MMI-increased silencer complex which is set at 10” value in assay [2] (10 μM), in assay [2] (100 μM), in assay [2] (1 mM) and in assay [2] (5 mM) was 0% each time. Also, the “Concentration to inhibit IFN-increased antigen expression, Class II” value in assay [3] is given as “No Inhibition”. The “% inhibition of class I RNA expression (γ-interferon-treated)” value (from here on “% inhibition … (γ-interferon-treated)”) with MHC class I RNA (1 mM, 100 U/ml γ-interferon, 6H medium (TSH), 40 hours) is on record as “None”; in the assay with MHC class I RNA (5 mM, 100 U/ml γ-interferon, 6H medium (TSH), 40 hours) it was “None”. Also, the “% inhibition of class I RNA expression (basal)” value (“% inhibition … (basal)” below) is “None” with MHC class I RNA (1 mM, basal, 5H medium, 40 hours) and “None” in the assay with MHC class I RNA (5 mM, basal, 5H medium, 40 hours). Besides, the “Y box protein (TSEP-1) RNA level, compound +γIFN” value amounted to 42 ± 11% in assay [4] (100 μM compound + γIFN), 42 ± 5% in assay [4] (1 mM compound + γIFN) and 47 ± 4% in assay [4] (5 mM compound + γIFN). The “Y box protein (TSEP-1) RNA level, compound ALONE” value was determined as 102 ± 7% in assay [4] (100 μM compound alone), 94 ± 6% in assay [4] (1 mM compound alone) and 100 ± 8% in assay [4] (5 mM compound alone).

On to `O=[N+]([O-])c1ccc2[nH]c(S)nc2c1` [Compound 5, 2-Mercapto-5-nitrobenzimidazole], for which the “% increase over control relative to the maximal (5 mM) MMI-increased silencer complex which is set at 10” value in assay [2] (10 μM) is given as 0%; in assay [2] (100 μM) it was 0%; in assay [2] (1 mM), 0%; in assay [2] (5 mM), “Insol”. Besides, in the assay with MHC class I RNA (setting [5]), the “% inhibition … (γ-interferon-treated)” value is on record as “None”. For the same molecule, the “% inhibition … (basal)” value in the assay on MHC class I RNA (setting [6]) is given as “None”. Besides, the values for the inhibition at 1000 µM in the assay on MHC class I RNA (setting [7]) and in the assay on MHC class I RNA (setting [8]) were 19 ± 7% and 32 ± 11%, respectively.

For `Sc1nc2ccccc2[nH]1` [Compound 4, 2-Mercaptobenzimidazole], the “% increase over control relative to the maximal (5 mM) MMI-increased silencer complex which is set at 10” value in assay [2] (10 μM) is 0%; in assay [2] (100 μM), 3 ± 0.5%; in assay [2] (1 mM), 9 ± 1.5%; in assay [2] (5 mM), “Insol”. In the assay with MHC class I RNA (setting [5]), the “% inhibition … (γ-interferon-treated)” value is “None”. The “% inhibition … (basal)” value in the assay on MHC class I RNA (setting [6]) was “None”. Besides, the inhibition – broadly, the change of the read-out against control, counted positive when it falls – at 1000 µM with MHC class I RNA (FRTL-5, 40 h, read-out: % inhibition of class I RNA expression (basal)) was determined as 34 ± 13%; in the assay with MHC class I RNA (FRTL-5, 40 h, read-out: % inhibition of class I RNA expression (γ-interferon-treated)), 37 ± 10%.

`Cc1ccc2[nH]c(S)nc2c1` [Compound 6, 2-Mercapto-5-methylbenzimidazole]: the “% increase over control relative to the maximal (5 mM) MMI-increased silencer complex which is set at 10” value in assay [2] (10 μM) is recorded as 0%; in assay [2] (100 μM) it was 0%; in assay [2] (1 mM), 3 ± 2%; in assay [2] (5 mM) it was “Insol”. In the assay with MHC class I RNA (setting [5]), the “% inhibition … (γ-interferon-treated)” value is listed as “None”. For the same molecule, the “% inhibition … (basal)” value in the assay on MHC class I RNA (setting [6]) is recorded as “None”. Moreover, the inhibition at 1000 µM is 22 ± 16% in the assay with MHC class I RNA (setting [7]) and 23 ± 15% with MHC class I RNA (setting [8]). Moreover, the inhibition at 5000 µM in the assay with MHC class I RNA (setting [9]) was 23 ± 11%.

For `Cc1cnc(S)n1C` [Compound 9, 5-Methylmethimazole], the “% increase over control relative to the maximal (5 mM) MMI-increased silencer complex which is set at 10” value is 0% in assay [2] (10 μM), 0% in assay [2] (100 μM), 1.5 ± 1.5% in assay [2] (1 mM) and 2.5 ± 1% in assay [2] (5 mM). In the assay with MHC class I RNA (setting [5]), the “% inhibition … (γ-interferon-treated)” value is recorded as “None”. Moreover, in the assay on MHC class I RNA (setting [6]), the “% inhibition … (basal)” value is “None”. Further, the inhibition at 1000 µM in the assay with MHC class I RNA (setting [7]) is 9 ± 5%; in the assay with MHC class I RNA (setting [8]), 15 ± 14%. Further, the inhibition at 5000 µM stood at 24 ± 6% with MHC class I RNA (setting [9]) and 30 ± 5% in the assay with MHC class I RNA (FRTL-5, 5 mM, basal, 5H medium, 40 hours, read-out: % inhibition of class I RNA expression (basal)).

B1: γ-IFN: rat recombinant γ-interferon, 100 U/ml, used to increase MHC class I and class II expression in FRTL-5 cells (protein, UniProt P01581 23-156, looked up)
Interferon gamma: QGTLIESLESLKNYFNSSSMDAMEGKSLLLDIWRNWQKDGNTKILESQIISFYLRLFEVLKDNQAISNNISVIESHLITNFFSNSKAKKDAFMSIAKFEVNNPQIQHKAVNELIRVIHQLSPESSLRKRKRSRC
For B1, the “Y box protein (TSEP-1) RNA level +γIFN, % Control” value in assay [4] (γ-IFN alone, 100 Units/ml) is reported as 45 ± 6%.
